Tests used:
Stability in rat plasma = conditions: after 4 hours, 37° C.
Protocol: In order to evaluate the stability to circulating enzymes, test compounds were incubated in human and rat plasma at 37° C. in a thermostated oscillating bath. Each test compound was incubated at μM concentration (50 μM when the samples were analysed by UV/HPLC, 1 or 2 μM when the samples were analysed by LC-MS/MS) for 0, 15, 30 minutes and 1, 2 and 4 hours. The reaction was stopped placing samples on ice bath and adding acidified acetonitrile. After centrifugation (10 minutes at 14000 rpm) an aliquot of the supernatant was diluted with water, filtered with 0.45 μm regenerated cellulose syringe filters and injected in HPLC-UV or in LC-MS/MS. The percentage of the remaining amount at the various incubation times with respect to the initial amount were calculated. The half-life in plasma was also calculated.

recombinant human HDAC6 = recombinant human HDAC6 (Homo sapiens (Human), UniProt Q9UBN7); assay: Enzymatic screening, HDAC6 inhibition (fluorogenic FdL_G substrate); type: biochemical
Method in brief: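 Enzyme was preincubated with compound (8 doses, triplicate, 1% DMSO) in 25 mM Tris-HCl pH 8, 130 mM NaCl, 0.05% Tween-20, 10% glycerol, with BSA. A FLUOR DE LYS-Green substrate was then added, and fluorescence was read after developer plus 2 μM TSA.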

[1] = Stability in human plasma; conditions: after 4 hours, 37° C.
[2] = Stability to Phase I metabolism in human S9 liver fraction; conditions: after 90 minutes, 37° C.
Protocol: Test compounds were incubated in rat and human liver S9 fraction at 37° C. up to 90 minutes in order to evaluate their stability to Phase I metabolism by hepatic enzymes. Each test compound was incubated at μM concentration (50 μM when the samples were analysed by UV/HPLC, 1 or 2 μM when the samples were analysed by LC-MS/MS) with S9 fraction (protein content 2 mg/m L) in 100 mM phosphate buffer (pH 7.4), 3.3 mM MgCl2 and 1.3 mM NADPH for 0, 10, 30, 60 and 90 minutes at 37° C. in a thermostated oscillating bath. The reaction was stopped placing samples on ice bath and adding acidified acetonitrile. After centrifugation (10 minutes at 14000 rpm) an aliquot of the supernatant was diluted with water, filtered with 0.45 μm regenerated cellulose syringe filters and injected in HPLC-UV or in LC-MS/MS. The percentage of the remaining amount at the various incubation times with respect to the initial amount were calculated.

recombinant human HDAC1 = recombinant human HDAC1 (Homo sapiens (Human), UniProt Q13547); assay: Enzymatic screening, HDAC1 inhibition (fluorogenic FdL_G substrate); type: biochemical
recombinant human HDAC1, sequence (Q13547 whole entry): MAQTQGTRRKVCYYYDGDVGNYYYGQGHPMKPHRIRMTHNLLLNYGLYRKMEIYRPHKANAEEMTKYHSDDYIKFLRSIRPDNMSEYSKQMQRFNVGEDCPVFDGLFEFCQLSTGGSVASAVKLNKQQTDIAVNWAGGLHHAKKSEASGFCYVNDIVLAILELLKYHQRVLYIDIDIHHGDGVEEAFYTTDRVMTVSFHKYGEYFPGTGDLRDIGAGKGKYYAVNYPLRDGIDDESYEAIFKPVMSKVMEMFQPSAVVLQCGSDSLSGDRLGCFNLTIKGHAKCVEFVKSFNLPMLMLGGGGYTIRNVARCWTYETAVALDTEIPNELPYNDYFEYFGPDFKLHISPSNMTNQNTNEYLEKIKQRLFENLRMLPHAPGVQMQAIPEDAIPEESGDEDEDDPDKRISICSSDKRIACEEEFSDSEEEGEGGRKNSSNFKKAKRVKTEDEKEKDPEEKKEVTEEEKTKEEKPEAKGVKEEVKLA
Method in brief: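 Recombinant human HDAC1 inhibition was measured fluorometrically using the FLUOR DE LYS-Green (FdL_G) substrate. Compounds at 8 doses (1% DMSO final) in Tris-HCl pH 8 buffer with NaCl, Tween-20 and glycerol were preincubated in triplicate with enzyme and 1 mg/mL BSA, then given substrate. Developer I plus 2 μM TSA was added, and fluorescence read after 25 minutes in the dark.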

[3] = Stability to Phase I metabolism in rat S9 liver fraction; conditions: after 90 minutes, 37° C.

recombinant human HDAC6, sequence (Q9UBN7 whole entry): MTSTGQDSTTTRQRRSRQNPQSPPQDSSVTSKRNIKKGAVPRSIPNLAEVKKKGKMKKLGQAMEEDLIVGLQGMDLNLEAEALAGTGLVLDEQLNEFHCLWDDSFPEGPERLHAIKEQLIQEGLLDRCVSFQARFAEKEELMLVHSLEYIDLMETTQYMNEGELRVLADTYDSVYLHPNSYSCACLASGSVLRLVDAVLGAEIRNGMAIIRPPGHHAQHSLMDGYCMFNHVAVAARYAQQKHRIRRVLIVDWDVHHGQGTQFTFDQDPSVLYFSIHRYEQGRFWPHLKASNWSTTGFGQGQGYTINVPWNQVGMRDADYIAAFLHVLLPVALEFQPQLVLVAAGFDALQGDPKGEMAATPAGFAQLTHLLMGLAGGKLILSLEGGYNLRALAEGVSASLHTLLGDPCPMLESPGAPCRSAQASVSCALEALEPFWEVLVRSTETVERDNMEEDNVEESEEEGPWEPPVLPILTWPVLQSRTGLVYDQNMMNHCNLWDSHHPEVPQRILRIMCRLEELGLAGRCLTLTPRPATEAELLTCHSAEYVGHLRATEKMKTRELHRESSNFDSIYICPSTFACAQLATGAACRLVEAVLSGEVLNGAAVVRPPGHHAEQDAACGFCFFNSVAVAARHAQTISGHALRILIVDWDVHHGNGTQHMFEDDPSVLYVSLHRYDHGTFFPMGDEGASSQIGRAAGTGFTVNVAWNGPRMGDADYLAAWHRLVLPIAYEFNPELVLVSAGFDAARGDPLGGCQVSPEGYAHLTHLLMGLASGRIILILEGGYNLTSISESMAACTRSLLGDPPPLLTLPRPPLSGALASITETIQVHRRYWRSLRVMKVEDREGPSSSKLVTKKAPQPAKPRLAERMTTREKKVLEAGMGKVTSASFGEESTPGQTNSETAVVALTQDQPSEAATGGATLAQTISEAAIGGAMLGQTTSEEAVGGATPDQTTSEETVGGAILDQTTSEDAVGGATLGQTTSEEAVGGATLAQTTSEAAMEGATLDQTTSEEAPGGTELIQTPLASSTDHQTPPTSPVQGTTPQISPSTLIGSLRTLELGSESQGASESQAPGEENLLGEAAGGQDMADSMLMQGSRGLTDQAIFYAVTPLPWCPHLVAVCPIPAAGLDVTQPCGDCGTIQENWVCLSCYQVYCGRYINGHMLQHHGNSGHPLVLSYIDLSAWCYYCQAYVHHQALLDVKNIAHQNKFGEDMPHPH

residual percentage in RAT PLASMA (Stability in rat plasma)	IC50 (recombinant human HDAC6)	residual percentage in HUMAN PLASMA [1]	residual percentage in HUMAN S9 FRACTION [2]	IC50 (recombinant human HDAC1)	residual percentage in RAT S9 FRACTION [3]	SMILES
82%	51 nM	92%	83%	> 200000 nM	58%	COc1ncccc1-c1cn(Cc2ccc(-c3nnc(C(F)F)o3)cc2)nn1 [compound 131, 2-(difluoromethyl)-5-(4-((4-(2-methoxypyridin-3-yl)-1H-1,2,3-triazol-1-yl)methyl)phenyl)-1,3,4-oxadiazole]
71%	15 nM	80%	81%	> 200000 nM	69%	FC(F)c1nnc(-c2ccc(Cn3cc(-c4ccc(NC5=NCCN5)cc4)cn3)cc2)o1 [compound 269, N-(4-(1-(4-(5-(difluoromethyl)-1,3,4-oxadiazol-2-yl)benzyl)-1H-pyrazol-4-yl)phenyl)-4,5-dihydro-1H-imidazol-2-amine]
80%	87 nM	88%	91%	> 200000 nM	72%	FC(F)c1nnc(-c2ccc(Cn3cc(-c4ccc5[nH]c(N6CCOCC6)nc5c4)nn3)cc2)o1 [Compd. 174, 4-(5-(1-(4-(5-(difluoromethyl)-1,3,4-oxadiazol-2-yl)benzyl)-1H-1,2,3-triazol-4-yl)-1H-benzo[d]imidazol-2-yl)morpholine]

The remaining lines, values behind:

SMILES	residual percentage in RAT PLASMA (Stability in rat plasma)	IC50 (recombinant human HDAC6)	residual percentage in HUMAN PLASMA [1]	residual percentage in HUMAN S9 FRACTION [2]	IC50 (recombinant human HDAC1)	residual percentage in RAT S9 FRACTION [3]
CCC[C@@H](c1ccc(-c2nnc(C(F)F)o2)cc1)n1cc(-c2ccc(N)nc2)nn1 (stereo in doubt) [compound 193, 5-(1-(1-(4-(5-(difluoromethyl)-1,3,4-oxadiazol-2-yl)phenyl)butyl)-1H-1,2,3-triazol-4-yl)pyridin-2-amine]	92%	104 nM	81%	87%	> 200000 nM	80%
CS(=O)(=O)NCCC(c1ccc(-c2nnc(C(F)F)o2)cc1)c1cn(-c2ccc(N)nc2)nn1 (stereo not drawn) [Compd. 62, N-{3-[1-(6-aminopyridin-3-yl)-1H-1,2,3-triazol-4-yl]-3-{4-[5-(difluoromethyl)-1,3,4-oxadiazol-2-yl]phenyl}propyl}methanesulfonamide]	69%	27 nM	88%	95%	> 200000 nM	86%
O=C(Nc1ccc(-c2nnc(Cc3ccc(-c4nnc(C(F)F)o4)cn3)s2)cn1)C(F)F [Compd. 102, N-(5-(5-((5-(5-(difluoromethyl)-1,3,4-oxadiazol-2-yl)pyridin-2-yl)methyl)-1,3,4-thiadiazol-2-yl)pyridin-2-yl)-2,2-difluoroacetamide]	90%	39 nM	92%	82%	> 200000 nM	56%
Cc1ncccc1-c1cn(Cc2c(F)cc(-c3nnc(C(F)F)o3)cc2F)nn1 [compound 105, 2-(3,5-difluoro-4-((4-(2-methylpyridin-3-yl)-1H-1,2,3-triazol-1-yl)methyl)phenyl)-5-(difluoromethyl)-1,3,4-oxadiazole]	81%	41 nM	84%	99%	> 200000 nM	71%
CC(=O)Nc1cccc(-c2cn(Cc3ccc(-c4nnc(C(F)F)o4)cn3)nn2)c1 [compound 37, N-(3-(1-((5-(5-(difluoromethyl)-1,3,4-oxadiazol-2-yl)pyridin-2-yl)methyl)-1H-1,2,3-triazol-4-yl)phenyl)acetamide]	83%	17 nM	90%	71%	> 200000 nM	78%
